Data: patent publication US4877803A, “Bis-dioxopiperazine derivatives and pharmaceutical compositions containing the same” (Zenyaku Kogyo Kabushiki Kaisha, priority 1985, dated 1989)

What was measured:
[1] = test system: P388 lymphocytic leukemia; assay: Increase in life span on tumor-transplanted mouse (P388); type: in vivo, mouse (CDF1); conditions: intraperitoneal, 1 day after transplantation and on 5th day
Protocol: (II) Increase in Life Span on Tumor-transplanted Mouse: The treated group to which the compound of the present invention was administered consisted of seven mice, while the control group consisted of ten mice. Six weeks old male mice (CDF1, 25±2 g of body weight) were employed as host animals.
Tumor cells (1.0×10^6) of P388 lymphocytic leukemia were transplanted intraperitoneally into each mouse. The treatment was effected one day after the transplantation and on 5th day by administering prescribed dose of each test compound intraperitoneally to the mice.
Antitumor activity of the test compound was evaluated by the rate of increase in life span (ILS) which was calculated with the following formula. [formula] T': median survival time of treated mice C': median survival time of control mice

[2] = test system: P388 lymphocytic leukemia cells; assay: Growth inhibition of tumor cells in vitro; type: cell-based; conditions: Mus musculus, 48 hours at 37° C., read-out: IC50 (50% inhibitory concentration of cell growth)
Protocol: (I) Growth Inhibition of Tumor Cells in Vitro:
Tumor cells were collected aseptically with capillary tube from ascites in CDF1 male mice transplanted intraperitoneally with 1×10^6 cells of P388 lymphocytic leukemia 5 days Before. Cell suspension was prepared at 5×10^4 cells/0.5 ml in a RPMI1640 medium supplemented with 10% fetal calf serum, Kanamycin (0.1 mg/ml) and 2-hydroxyethyldisulfide (0.01 mm). Each sample was dissolved or suspended in the medium at a concentration of 1×10^-1 -1×10^-5 mM/ml.
A test tube with Molton stopper loosely involving 0.5 ml each of the cell suspension and the sample suspension was kept for 48 hours at 37° C. in an incubator supplied with air containing 5% carbon dioxide. Then, after addition of 4 ml of 0.25% trypsin solution, the tube was shaken for 5 minutes at 37° C. The cells harvested therefrom was counted by using of a Coulter Counter and the inhibition of cell growth was calculated by the following formula: [formula] T: number of cells in the culture containing test compound. C: number of cells in the culture of control
50% Inhibitory concentration of cell growth (IC50) was calculated based on the inhibition in various concentrations of test compound and is shown in Table I.

[3] = Acute toxicity test in mice; conditions: mouse, in vivo, ip; male ICR mice, intraperitoneal, observed for 14 days, Litchfield-Wilcoxon method
Protocol: The acute toxicity of the compounds of the present invention was examined by the following test.
The test group to which the compound of the present invention was administered consisted of ten mice. Five weeks old male mice (ICR, 25±2 g of body weight) were employed as test animals.

| Structure (SMILES) | IC50 [2] [nM] | ILS (rate of increase in life span) ([1]; daily dose 3.0 mg/kg) [%] | also measured |
| --- | --- | --- | --- |
| C[C@H]([C@H](C)N1CC(=O)N(CN2CCSCC2)C(=O)C1)N1CC(=O)N(CN2CCSCC2)C(=O)C1 [(2), meso-2,3-bis(4-thiomorpholinomethyl-3,5-dioxopiperazin-1-yl)butane] | 230 | – | ILS (rate of increase in life span) ([1]; daily dose 1.8 mg/kg): > 194% |
| C[C@H]([C@H](C)N1CC(=O)N(CN2CCN(c3ccccc3)CC2)C(=O)C1)N1CC(=O)N(CN2CCN(c3ccccc3)CC2)C(=O)C1 [(3), meso-2,3-bis[4-(N-phenylpiperazinomethyl)-3,5-dioxopiperazin-1-yl]butane] | 22 | – | ILS (rate of increase in life span) ([1]; daily dose 3.4 mg/kg): 78% |
| C[C@H]([C@H](C)N1CC(=O)N(CN2CCCCC2)C(=O)C1)N1CC(=O)N(CN2CCCCC2)C(=O)C1 [(4), meso-2,3-bis(4-piperoidinomethyl-3,5-dioxopiperazin-1-yl)butane] | 47 | – | – |
| CC1CC(C)CN(CN2C(=O)CN([C@H](C)[C@H](C)N3CC(=O)N(CN4CC(C)CC(C)C4)C(=O)C3)CC2=O)C1 (stereo partly drawn) [(5), meso-2,3-bis[4-(3,5-dimethylpiperidinomethyl)-3,5-dioxopiperazin-1-yl]butane] | 12 | – | – |
| C[C@H]([C@H](C)N1CC(=O)N(CN2CCOCC2)C(=O)C1)N1CC(=O)N(CN2CCOCC2)C(=O)C1 [(1), meso-2,3-bis(4-morpholinomethyl-3,5-dioxopiperazin-1-yl)butane] | 61 | 165 | LD50 at 336 h [3]: 10.7 mg/kg |

Second part, led by results:

| IC50 [2] [nM] | Structure (SMILES) | ILS (rate of increase in life span) ([1]; daily dose 3.0 mg/kg) [%] | also measured |
| --- | --- | --- | --- |
| 2400 | O=C1CN(CCN2CC(=O)N(CN3CCOCC3)C(=O)C2)CC(=O)N1CN1CCOCC1 [(A), 1,2-bis(4-morpholinomethyl-3,5-dioxopiperazin-1-yl)ethane] | 2 | ILS (rate of increase in life span) ([1]; daily dose 100 mg/kg (adequate dose)): 60% |
| 1600 | CC(CN1CC(=O)N(CN2CCOCC2)C(=O)C1)N1CC(=O)N(CN2CCOCC2)C(=O)C1 (racemic) [(B), dl-1,2-bis(4-morpholinomethyl-3,5-dioxopiperazin-1-yl)propane] | 1 | ILS (rate of increase in life span) ([1]; daily dose 200 mg/kg (adequate dose)): 47% |
